Here are results for 22 compounds from ChEMBL document CHEMBL1142738, “N-substituted piperidinyl alkyl imidazoles: discovery of methimepip as a potent and selective histamine H3 receptor agonist” (J Med Chem, 2005).

Test [1] deals with T1, Histamine H3 receptor (Homo sapiens, UniProt Q9Y5N1). Briefly: Inhibition of cAMP-stimulated beta-galactosidase transcription in SK-N-MC cells expressing human H3 receptor. The test is classed as functional, cell-based.
In test [2] the target is T1, Histamine H3 receptor. The experiment in a line: Displacement of [3H]N-R-methylhistamine binding to SK-N-MC cell membranes expressing human H3 receptor. In general terms: Displacement assays read how much labelled ligand stays bound in the presence of the test substance.
The target in another test is Histamine H2 receptor (Homo sapiens, UniProt P25021). Briefly: Displacement of [125I]aminopotentidine binding to CHO cell membranes expressing human histamine H2 receptor.
In a further test the target is Histamine H4 receptor (Homo sapiens, UniProt Q9H3N8). Briefly: Displacement of [3H]histamine binding to SK-N-MC cell membranes expressing human histamine H4 receptor.
Test [3] deals with Histamine H3 receptor (Cavia porcellus). Briefly: Effect on guinea pig ileal muscle contraction evoked by electrical field stimulation (EFS).
A further test has as its target Histamine H1 receptor (Homo sapiens, UniProt P35367). Briefly: Displacement of [3H]mepyramine binding to COS-7 cell membranes expressing human histamine H1 receptor.

T1 sequence (Q9Y5N1 whole entry): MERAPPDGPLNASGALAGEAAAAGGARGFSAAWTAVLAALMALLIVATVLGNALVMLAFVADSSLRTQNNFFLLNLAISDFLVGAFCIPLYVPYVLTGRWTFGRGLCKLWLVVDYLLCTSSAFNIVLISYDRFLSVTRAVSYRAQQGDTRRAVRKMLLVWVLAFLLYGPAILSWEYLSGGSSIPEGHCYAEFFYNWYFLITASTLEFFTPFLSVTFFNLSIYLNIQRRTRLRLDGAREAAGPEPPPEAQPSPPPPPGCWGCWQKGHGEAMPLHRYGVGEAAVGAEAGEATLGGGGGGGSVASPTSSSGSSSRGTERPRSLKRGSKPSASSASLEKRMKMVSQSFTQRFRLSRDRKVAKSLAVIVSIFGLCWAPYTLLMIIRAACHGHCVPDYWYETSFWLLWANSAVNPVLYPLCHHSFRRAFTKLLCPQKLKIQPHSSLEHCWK
Histamine H4 receptor, sequence (Q9H3N8 whole entry): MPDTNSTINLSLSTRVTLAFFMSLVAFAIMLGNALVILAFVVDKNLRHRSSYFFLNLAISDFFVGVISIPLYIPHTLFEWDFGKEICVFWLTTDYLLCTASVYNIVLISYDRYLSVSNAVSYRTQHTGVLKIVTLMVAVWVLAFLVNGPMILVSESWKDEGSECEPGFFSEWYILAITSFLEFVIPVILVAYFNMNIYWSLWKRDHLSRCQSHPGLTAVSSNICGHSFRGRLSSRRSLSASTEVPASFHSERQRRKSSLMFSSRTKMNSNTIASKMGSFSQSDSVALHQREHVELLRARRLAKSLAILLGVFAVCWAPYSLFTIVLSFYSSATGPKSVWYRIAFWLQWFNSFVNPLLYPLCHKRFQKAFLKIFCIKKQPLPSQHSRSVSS
Histamine H2 receptor, sequence (P25021 whole entry): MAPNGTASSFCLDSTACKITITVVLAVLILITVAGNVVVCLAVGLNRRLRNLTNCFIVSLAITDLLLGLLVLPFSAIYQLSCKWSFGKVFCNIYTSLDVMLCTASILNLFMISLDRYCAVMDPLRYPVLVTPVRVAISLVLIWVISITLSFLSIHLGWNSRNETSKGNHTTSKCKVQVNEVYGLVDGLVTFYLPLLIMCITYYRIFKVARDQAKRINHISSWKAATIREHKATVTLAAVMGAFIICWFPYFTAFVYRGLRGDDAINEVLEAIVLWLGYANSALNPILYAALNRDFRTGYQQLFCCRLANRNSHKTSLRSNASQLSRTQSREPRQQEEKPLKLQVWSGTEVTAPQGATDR
Histamine H1 receptor, sequence (P35367 whole entry): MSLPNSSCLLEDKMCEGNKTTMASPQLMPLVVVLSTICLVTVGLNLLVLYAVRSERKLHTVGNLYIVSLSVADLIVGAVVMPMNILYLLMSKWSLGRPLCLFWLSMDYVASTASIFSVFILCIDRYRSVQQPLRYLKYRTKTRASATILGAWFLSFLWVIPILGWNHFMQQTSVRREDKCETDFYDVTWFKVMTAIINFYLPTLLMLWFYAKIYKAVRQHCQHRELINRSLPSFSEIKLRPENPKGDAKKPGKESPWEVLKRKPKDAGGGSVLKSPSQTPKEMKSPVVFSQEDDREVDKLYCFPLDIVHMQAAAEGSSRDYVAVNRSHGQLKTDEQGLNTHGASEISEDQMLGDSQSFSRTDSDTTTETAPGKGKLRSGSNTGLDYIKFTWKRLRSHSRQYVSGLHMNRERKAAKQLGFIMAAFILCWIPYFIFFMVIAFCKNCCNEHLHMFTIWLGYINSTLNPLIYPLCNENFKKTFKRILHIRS

With `CCN1CCC(CCc2c[nH]cn2)CC1`, the concentration giving a half-maximal response (EC50) (commonly the midpoint of the concentration-response curve) on Histamine H3 receptor [1] is over 10 µM. Further, on Histamine H3 receptor [2], affinity was put at a Ki of 0.0631 µM.
As to `C(=C1CCNCC1)c1c[nH]cn1`, the Ki (in general, the equilibrium dissociation constant of an inhibitor or competing ligand from its target) on Histamine H3 receptor [2] is 0.00631 µM.
`CCN1CCC(Cc2c[nH]cn2)CC1` had an EC50 on Histamine H3 receptor [1] of 0.00398 µM. On Histamine H3 receptor [2], the inhibitory constant (Ki) is 0.0158 µM.
Taken in the same sequence, the figures for `c1ccc(CCN2CCC(Cc3c[nH]cn3)CC2)cc1` were 0.00794 µM and 0.01 µM.
Taken in the same sequence, the figures for `CN1CCC(=Cc2c[nH]cn2)CC1` were 0.00251 µM and 0.00501 µM.
For `CCN1CCC(=Cc2c[nH]cn2)CC1`, in that order: 0.0251 µM and 0.0501 µM.
`C(=C1CCN(Cc2ccccc2)CC1)c1c[nH]cn1`: on Histamine H3 receptor [1], the response was half-maximal at 0.0794 µM (EC50). On Histamine H3 receptor [2], this compound showed a Ki of 0.398 µM.
Taken in the same sequence, the figures for `c1nc(CC2CCN(C3CCCCC3)CC2)c[nH]1` were 0.00398 µM and 0.0158 µM.
For `c1ccc(CN2CCC(Cc3c[nH]cn3)CC2)cc1`, in that order: 0.0158 µM and 0.0501 µM.
As for `c1nc(CC2CCNCC2)c[nH]1` [IMMEPIP], the Ki on Histamine H2 receptor is over 10 µM; at Histamine H3 receptor [2] it was 0.000501 µM; at Histamine H4 receptor it was 0.02 µM. The compound further returned a pD2 in test [3] of 8.4.
For the compound `CC(C)N1CCC(CCc2c[nH]cn2)CC1`, the EC50 on Histamine H3 receptor [1] was 0.2 µM. Also, the Ki at Histamine H3 receptor [2] is 0.1 µM.
Taken in the same sequence, the figures for `c1ccc(CCCN2CCC(Cc3c[nH]cn3)CC2)cc1` were 0.0316 µM and 0.0398 µM.
On to `c1nc(CCC2CCNCC2)c[nH]1`, for which the EC50 at Histamine H3 receptor [1] was 0.0126 µM.
Consider `C(=C1CCN(C2CCCCC2)CC1)c1c[nH]cn1`, for which the EC50 at Histamine H3 receptor [1] was 0.0501 µM. On Histamine H3 receptor [2], this compound had a Ki of 0.0316 µM.
For `c1ccc(CN2CCC(CCc3c[nH]cn3)CC2)cc1`, in that order: over 10 µM and 0.0794 µM.
Taken in the same sequence, the figures for `c1ccc(CCN2CCC(CCc3c[nH]cn3)CC2)cc1` were over 10 µM and 0.0398 µM.
For `CC(C)N1CCC(=Cc2c[nH]cn2)CC1`, in that order: 0.0631 µM and 0.0631 µM.
On to `C(=C1CCN(CCc2ccccc2)CC1)c1c[nH]cn1`, for which the EC50 on Histamine H3 receptor [1] was 0.0158 µM. Besides, the Ki at Histamine H3 receptor [2] is 0.0631 µM.
The compound `CN1CCC(CCc2c[nH]cn2)CC1` gave an EC50 on Histamine H3 receptor [1] of 0.0501 µM. In addition, the inhibition constant (Ki) on Histamine H3 receptor [2] was 0.0501 µM.
In turn, `c1nc(CCC2CCN(C3CCCCC3)CC2)c[nH]1` showed an EC50 on Histamine H3 receptor [1] of 0.316 µM. The compound further had a Ki on Histamine H3 receptor [2] of 0.158 µM.
`CN1CCC(Cc2c[nH]cn2)CC1` [METHIMEPIP] gave an EC50 on Histamine H3 receptor [1] of 0.000316 µM. In addition, the Ki was over 10 µM at Histamine H1 receptor, over 10 µM at Histamine H2 receptor, 0.001 µM at Histamine H3 receptor [2] and 2 µM at Histamine H4 receptor. Moreover, in test [3], the pD2 is listed as 8.26.
As for `CC(C)N1CCC(Cc2c[nH]cn2)CC1`, the midpoint of the response on Histamine H3 receptor [1], the EC50, lay at 0.00794 µM. The compound further showed a Ki at Histamine H3 receptor [2] of 0.0631 µM.
